The results in this text go back to patent US8507559B2, “Cyclohexenyl modulators of chemokine receptor activity” (Bristol-Myers Squibb Company, priority 2008, dated 2013).

The target of the assay is T1, CCR2 (Homo sapiens, UniProt P41597).
T1 construct: THP-1 human monocytic leukemic cell line, which expresses endogenous CCR2; endogenous in cells; host or cells: human peripheral blood mononuclear cells, human monocytes or THP-1 cells
T1 sequence (P41597 1-360 isoform P41597-2): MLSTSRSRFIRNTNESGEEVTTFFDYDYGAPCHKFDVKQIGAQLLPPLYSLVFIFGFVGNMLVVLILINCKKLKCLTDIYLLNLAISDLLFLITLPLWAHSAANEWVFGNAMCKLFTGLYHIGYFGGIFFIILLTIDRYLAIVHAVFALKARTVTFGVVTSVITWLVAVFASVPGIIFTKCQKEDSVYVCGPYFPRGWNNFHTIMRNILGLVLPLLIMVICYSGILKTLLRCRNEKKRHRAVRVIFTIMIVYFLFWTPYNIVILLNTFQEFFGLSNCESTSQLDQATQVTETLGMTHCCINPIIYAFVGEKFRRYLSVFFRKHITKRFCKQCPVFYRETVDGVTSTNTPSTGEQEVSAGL
Kind of assay: CCR2 binding: antagonism of 125I-MCP-1 binding (human PBMC / THP-1 whole cell). To be noted: n = 1 unless otherwise noted. The method, then: Antagonism of MCP-1 Binding to Human PBMC
Millipore filter plates (#MABVN1250) are treated with 100 μl of binding buffer (0.5% bovine serum albumin, 20 mM HEPES buffer and 5 mM magnesium chloride in RPMI 1640 media) for thirty minutes at room temperature. To measure binding, 50 μl of binding buffer, with or without a known concentration compound, is combined with 50 μl of ^125-I labeled human MCP-1 (to give a final concentration of 150 pM radioligand) and 50 μl of binding buffer containing 5×10^5 cells. Cells used for such binding assays can include human peripheral blood mononuclear cells isolated by Ficoll-Hypaque gradient centrifugation, human monocytes (Weiner et al., J. Immunol. Methods. 1980, 36, 89), or the THP-1 cell line which expresses the endogenous receptor. The mixture of compound, cells and radioligand are incubated at room temperature for thirty minutes. Plates are placed onto a vacuum manifold, vacuum applied, and the plates washed three times with binding buffer containing 0.5M NaCl. The plastic skirt is removed from the plate, the plate allowed to air dry, the wells punched out and counted. The percent inhibition of binding is calculated using the total counts obtained in the absence of any competing compound and the background binding determined by addition of 100 nM MCP-1 in place of the test compound.
THP-1 Monocytic Cell Binding: Whole Cell-based Assay
The human CCR2 binding assay was also established with the THP-1 human monocytic leukemic cell line, which expresses endogenous CCR2, using ^125I-human MCP-1 as the tracer ligand. Radioligand competition binding assays were used for assessment of binding affinity of test compounds to the CCR2 receptor. For radioligand competition studies, 100 μl containing 2.5×10^5 THP-1 cells/well (in assay buffer containing 50 mM HEPES, pH7.4, 5 mM MgCl2, 1 mM CaCl2 and 0.5% BSA) were added to 96-well assay plates containing the test compounds in 3-fold serial dilution, with final concentrations ranging from 5 μM to 100 pM. Subsequently, 50 μl ^125I-MCP-1 radioligand at a final concentration of 0.2 nM in assay buffer were added to the reaction. After a 90 minute incubation period at room temperature, the binding reaction was terminated by harvesting on GF/B filter plates (PerkinElmer Cat. No. 6005177) followed by washing with ice-cold wash buffer (50 mM HEPES, pH 7.4, 0.1% BSA, 0.5 M NaCl) to remove unbound ligand. After washing, the plate was dried for 45 minutes at 60° C. followed by addition of 40 μl MicroScint 20 scintillation fluid, sealed and analyzed by the Packard TopCount reader. Non-specific binding was determined in the presence of 10 μM (a molar excess of 5000 fold) of an in-house CCR2 small molecule antagonist (CCR2 IC50=2 nM). Specific binding of ^125I-MCP-1 was calculated as the difference between total and non-specific binding. The competition data was plotted as a percentage inhibition of radioligand specific bound in the absence of test compound (percent of total signal). After correcting for non-specific binding, IC50 values were determined. The IC50 is defined as the concentration of test compound required to reduce ^125I-MCP-1 specific binding by 50% and was calculated using the four parameter logistic equation to fit the normalized data.

As a reminder, the Ki is the equilibrium dissociation constant of an inhibitor or competing ligand from its target. Low values mean higher affinity, high ones lower affinity.

As to `C[C@@H]1CC=C(C(=O)O)[C@@](C)(c2ccc(Cl)c(C(F)(F)F)c2)C1` [Example 4-01b, (4R,6R)-6-(4-chloro-3-(trifluoromethyl)phenyl)-4,6-dimethylcyclohex-1-enecarboxylic acid], the Ki stood at 4500 nM.

For `Cc1cc(C)cc([C@@]2(C)C[C@H](C)CC=C2C(=O)O)c1` (racemic) [Example 1-29, (4RS,6RS)-6-(3,5-dimethylphenyl)-4,6-dimethylcyclohex-1-enecarboxylic acid], the Ki amounted to 300 nM. This Ki is about 15-fold lower than that of the molecule before.

On to `COc1ccccc1C1(C)CCCC=C1C(=O)O` (centres unmarked) [Example 1-07, 6-(2-methoxyphenyl)-6-methyl methylcyclohex-1-enecarboxylic acid], for which the affinity, expressed as Ki, was 10000 nM. This Ki lies about 33-fold higher than the previous one.

Molecule `Cc1cc([C@@]2(C)C[C@H](C)CC=C2C(=O)O)cc(C)c1Cl` (racemic) [Example 1-27, (4RS,6RS)-6-(4-chloro-3,5-dimethylphenyl)-4,6-dimethylcyclohex-1-enecarboxylic acid] yielded a Ki of 130 nM.

In the case of `CC1(c2ccc(Cl)cc2)CCCC=C1C(=O)O` (racemic) [Example 1-02, 6-(4-chlorophenyl)-6-methylcyclohex-1-enecarboxylic acid], the Ki is 3400 nM.

“(4RS,6RS)-6-(4-chloro-3-(trifluoromethyl)-phenyl)-4-(hydroxymethyl)-6-methylcyclohex-1-enecarboxylic acid [Example 9]” came in with a Ki of 310 nM.

The molecule `Cc1ccc(C)c([C@@]2(C)C[C@H](C)CC=C2C(=O)O)c1` (racemic) [Example 1-26, (4RS,6RS)-6-(2,5-dimethylphenyl)-4,6-dimethylcyclohex-1-enecarboxylic acid] registered a Ki of 550 nM. This Ki lies about 1.8-fold higher than the previous one.

In turn, `C[C@@H]1CC=C(C(=O)O)[C@@](C)(c2cc(Cl)cc(Cl)c2)C1` (racemic) [Example 1-30, (4RS,6RS)-6-(3,5-dichlorophenyl)-4,6-dimethylcyclohex-1-enecarboxylic acid] returned a Ki of 110 nM.

For `CC1=C(C(=O)O)[C@@](C)(c2ccc(Cl)c(Cl)c2)C[C@H](C)C1` (racemic) [Example 6, (4RS,6RS)-6-(3,4-dichlorophenyl)-2,4,6-trimethylcyclohex-1-enecarboxylic acid], the Ki amounted to 580 nM. Compared with the last molecule, the Ki is about 5.3-fold higher.

`CC1(c2ccc(Cl)c(Cl)c2)CCCC=C1C(=O)O` (racemic) [Example 1-01, 6-(3,4-dichlorophenyl)-6-methylcyclohex-1-enecarboxylic acid]: the Ki stood at 440 nM.

On to `C[C@@H]1CC=C(C(=O)O)[C@@](C)(c2cc(C(F)(F)F)cc(C(F)(F)F)c2)C1` (racemic) [Example 1-14, (4RS,6RS)-6-(3,5-bis(trifluoromethyl)-phenyl)-4,6-dimethylcyclohex-1-enecarboxylic acid], for which the Ki was 740 nM.

Regarding `CC1(c2cccc(C(F)(F)F)c2)CCCC=C1C(=O)O` (racemic) [Example 1-10, 6-methyl-6-(3-(trifluoromethyl)-phenyl)cyclohex-1-enecarboxylic acid], the affinity corresponds to a Ki of 1600 nM.

`C[C@@H]1CC=C(C(=O)NS(=O)(=O)c2ccccc2)[C@@](C)(c2ccc(Cl)c(Cl)c2)C1` (racemic) [Example 3-03, (4RS,6RS)-6-(3,4-dichlorophenyl)-4,6-dimethyl-N-(phenylsulfonyl)cyclohex-1-enecarboxamide] came in with a Ki of 150 nM.

With `CC(C)(C)OC[C@@H]1CC=C(C(=O)O)[C@@](C)(c2ccc(Cl)c(C(F)(F)F)c2)C1` (racemic) [Example 10, (4RS,6RS)-4-(tert-butoxymethyl)-6-(4-chloro-3-(trifluoromethyl)phenyl)-6-methylcyclohex-1-enecarboxylic acid], the Ki was 6200 nM.

In the case of `C[C@@H]1CC=C(C(=O)O)[C@@](C)(c2ccc(F)c(F)c2)C1` (racemic) [Example 1-05, (4RS,6RS)-6-(3,4-difluorophenyl)-4,6-dimethylcyclohex-1-enecarboxylic acid], the Ki turned out to be 3500 nM.

`C[C@@H]1CC=C(C(=O)O)[C@@](C)(c2ccc(Cl)c(C(F)(F)F)c2)C1` (racemic) [Example 1-13, (4RS,6RS)-6-(4-chloro-3-(trifluoromethyl)-phenyl)-4,6-dimethylcyclohex-1-enecarboxylic acid] yielded a Ki of 11 nM. This Ki lies about 320-fold lower than the previous one.

Consider `C[C@@H]1CC=C(C(=O)O)[C@@](C)(c2ccc(Cl)c(Cl)c2)C1` [Example 4-02b, (4R,6R)-6-(3,4-dichlorophenyl)-4,6-dimethylcyclohex-1-enecarboxylic acid], for which the Ki was 5800 nM.

The molecule `C[C@@H]1CC=C(C(=O)O)[C@@](C)(c2cccc3ccccc23)C1` (racemic) [Example 1-16, (4RS,6RS)-4,6-dimethyl-6-(napthalen-1-yl)cyclohex-1-enecarboxylic acid] registered a Ki of 140 nM.

Take `Cc1ccc([C@@]2(C)C[C@H](C)CC=C2C(=O)O)cc1` (racemic) [Example 1-17, (4RS,6RS)-4,6-dimethyl-6-p-tolylcyclohex-1-enecarboxylic acid]: the affinity, expressed as Ki, was 2600 nM. Compared with the last molecule, the Ki is about 19-fold higher.

Molecule `C[C@@H]1CC=C(C(=O)O)[C@@](C)(c2ccccc2)C1` (racemic) [Example 1-24, (4RS,6RS)-4,6-dimethyl-6-phenylcyclohex-1-enecarboxylic acid] returned a Ki of 1000 nM.

`Cc1ccc([C@@]2(C)C[C@H](C)CC=C2C(=O)O)cc1C` (racemic) [Example 1-15, (4RS,6RS)-6-(3,4-dimethylphenyl)-4,6-dimethylcyclohex-1-enecarboxylic acid]: the Ki came out at 330 nM.

Regarding `C[C@@H]1CC=C(C(=O)O)[C@@](C)(c2ccc3ccccc3c2)C1` (racemic) [Example 1-20, (4RS,6RS)-4,6-dimethyl-6-(naphthalen-2-yl)cyclohex-1-enecarboxylic acid], the affinity, expressed as Ki, was 320 nM.

`Cc1cccc([C@@]2(C)C[C@H](C)CC=C2C(=O)O)c1C` (racemic) [Example 1-19, (4RS,6RS)-6-(2,3-dimethylphenyl)-4,6-dimethylcyclohex-1-enecarboxylic acid] yielded an inhibitory constant (Ki) of 3700 nM.

Turning to `C[C@H]1CC=C(C(=O)O)[C@](C)(c2ccc(Cl)c(Cl)c2)C1` [Example 4-02a, (45,65)-6-(3,4-dichlorophenyl)-4,6-dimethylcyclohex-1-enecarboxylic acid], the affinity corresponds to a Ki of 36 nM.

Molecule `Cc1ccc(C2(C)CCCC=C2C(=O)O)cc1C` (racemic) [Example 1-08, 6-(3,4-dimethylphenyl)-6-methylcyclohex-1-enecarboxylic acid] displayed a Ki of 8200 nM.

Molecule `Cc1cc([C@@]2(C)C[C@H](C)CC=C2C(=O)O)ccc1F` (racemic) [Example 1-25, (4RS,6RS)-6-(4-fluoro-3-methylphenyl)-4,6-dimethylcyclohex-1-enecarboxylic acid] returned a Ki of 1100 nM.

Consider `Cc1ccc([C@@]2(C)C[C@H](C)CC=C2C(=O)O)c2ccccc12` (racemic) [Example 1-28, (4RS,6RS)-4,6-dimethyl-6-(4-methyl-naphthalen-1-yl)cyclohex-1-enecarboxylic acid], for which the affinity, expressed as Ki, was 250 nM.

With `C[C@]1(c2ccc(Cl)c(C(F)(F)F)c2)C[C@H](OCc2ccccc2)CC=C1C(=O)O` (racemic) [Example 12, (4RS,6RS)-4-(benzyloxy)-6-(4-chloro-3-(trifluoromethyl)phenyl)-6-methylcyclohex-1-enecarboxylic acid], the Ki was 2500 nM.

`CC(=O)NC[C@@H]1CC=C(C(=O)O)[C@@](C)(c2ccc(Cl)c(C(F)(F)F)c2)C1` (racemic) [Example 11, (4RS,6RS)-4-(acetamidomethyl)-6-(4-chloro-3-(trifluoromethyl)phenyl)-6-methylcyclohex-1-enecarboxylic acid] yielded a Ki of 5500 nM.
